From PubChem BioAssay AID2060486 (Molecular Pharmacology Branch, DTP, NCI, 2025)
pIC50: −log10 of the molar value.

System: IGROV1 complex spheroids (HUVEC, MSC), viability % test/control
Experiment: Anticancer human tumor IGROV1 cell line growth inhibition [GQUAD];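 also: spheroids exposed to compounds for 7 days before readout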;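 as to viability, T/C: 100% = DMSO vehicle control viability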
Conditions: for pIC50: curve of first compound; for viability, T/C: stronger effect = lower value
Summary of the method: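 Viability of tumor cells grown as complex spheroids with endothelial and stromal cells, exposed to drug combinations. Top concentration at or near clinical Cmax (else 10 microM), diluted in half-log increments.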

[1] = second compound 0.0316 µM, first compound 0.0316 µM
[2] = second compound 0.0316 µM, first compound 0.1 µM
[3] = second compound 0.0316 µM, first compound 0.316 µM
[4] = second compound 0.0316 µM, first compound 1 µM
[5] = second compound 0.0316 µM, first compound 3.16 µM
[6] = second compound 0.0316 µM, first compound 10 µM
[7] = second compound 0.1 µM, first compound 0.0316 µM
[8] = second compound 0.1 µM, first compound 0.1 µM
[9] = second compound 0.1 µM, first compound 0.316 µM
[10] = second compound 0.1 µM, first compound 1 µM
[11] = second compound 0.1 µM, first compound 3.16 µM
[12] = second compound 0.1 µM, first compound 10 µM
[13] = second compound 0.316 µM, first compound 0.0316 µM
[14] = second compound 0.316 µM, first compound 0.1 µM
[15] = second compound 0.316 µM, first compound 0.316 µM
[16] = second compound 0.316 µM, first compound 1 µM
[17] = second compound 0.316 µM, first compound 3.16 µM
[18] = second compound 0.316 µM, first compound 10 µM
[19] = second compound 1 µM, first compound 0.0316 µM
[20] = second compound 1 µM, first compound 0.1 µM
[21] = second compound 1 µM, first compound 0.316 µM
[22] = second compound 1 µM, first compound 1 µM
[23] = second compound 1 µM, first compound 3.16 µM
[24] = second compound 1 µM, first compound 10 µM
[25] = second compound 3.16 µM, first compound 0.0316 µM
[26] = second compound 3.16 µM, first compound 0.1 µM
[27] = second compound 3.16 µM, first compound 0.316 µM
[28] = second compound 3.16 µM, first compound 1 µM
[29] = second compound 3.16 µM, first compound 3.16 µM
[30] = second compound 3.16 µM, first compound 10 µM
[31] = second compound 10 µM, first compound 0.0316 µM
[32] = second compound 10 µM, first compound 0.1 µM
[33] = second compound 10 µM, first compound 0.316 µM
[34] = second compound 10 µM, first compound 1 µM
[35] = second compound 10 µM, first compound 3.16 µM
[36] = second compound 10 µM, first compound 10 µM

Structure (SMILES): CC1COCCN1c1cc(C2(S(C)(=N)=O)CC2)nc(-c2ccnc3[nH]ccc23)n1 (stereo not drawn) + CN(C)c1ccc(Nc2c3ccc(NC(=O)CCN4CCCC4)cc3nc3cc(NC(=O)CCN4CCCC4)ccc23)cc1
- pIC50 (second compound 0.0316 µM): 5.99
- pIC50 (second compound 0.1 µM): 6.02
- pIC50 (second compound 0.316 µM): 6.01
- pIC50 (second compound 1 µM): 5.99
- pIC50 (second compound 3.16 µM): 5.99
- pIC50 (second compound 10 µM): 6.85
- viability, T/C [1]: 83.5%
- viability, T/C [2]: 76.6%
- viability, T/C [3]: 86.7%
- viability, T/C [4]: 49.9%
- viability, T/C [5]: 16.1%
- viability, T/C [6]: 7.65%
- viability, T/C [7]: 99.2%
- viability, T/C [8]: 89.5%
- viability, T/C [9]: 76.3%
- viability, T/C [10]: 52.7%
- viability, T/C [11]: 14%
- viability, T/C [12]: 5.88%
- viability, T/C [13]: 83.7%
- viability, T/C [14]: 103%
- viability, T/C [15]: 76.8%
- viability, T/C [16]: 51.4%
- viability, T/C [17]: 13.7%
- viability, T/C [18]: 6.28%
- viability, T/C [19]: 72.4%
- viability, T/C [20]: 93%
- viability, T/C [21]: 69.8%
- viability, T/C [22]: 52.5%
- viability, T/C [23]: 12.1%
- viability, T/C [24]: 6.36%
- viability, T/C [25]: 65.5%
- viability, T/C [26]: 84%
- viability, T/C [27]: 79.7%
- viability, T/C [28]: 49.4%
- viability, T/C [29]: 16.5%
- viability, T/C [30]: 6.55%
- viability, T/C [31]: 60.6%
- viability, T/C [32]: 54.4%
- viability, T/C [33]: 40.4%
- viability, T/C [34]: 30.5%
- viability, T/C [35]: 15.2%
- viability, T/C [36]: 7.14%

Structure (SMILES): COc1cccc2c1C(=O)c1c(O)c3c(c(O)c1C2=O)CC(O)(C(=O)CO)CC3OC1CC(N)C(O)C(C)O1 (stereo not drawn) + CN(C)c1ccc(Nc2c3ccc(NC(=O)CCN4CCCC4)cc3nc3cc(NC(=O)CCN4CCCC4)ccc23)cc1
- pIC50 (second compound 0.0316 µM): 7.31
- pIC50 (second compound 0.1 µM): 7.31
- pIC50 (second compound 0.316 µM): 7.40
- pIC50 (second compound 1 µM): 7.49
- pIC50 (second compound 3.16 µM): 7.38
- pIC50 (second compound 10 µM): > 7.50
- viability, T/C [1]: 67.7%
- viability, T/C [2]: 21.5%
- viability, T/C [3]: 9.86%
- viability, T/C [4]: 3.36%
- viability, T/C [5]: 0.13%
- viability, T/C [6]: 1.04%
- viability, T/C [7]: 67.9%
- viability, T/C [8]: 20.4%
- viability, T/C [9]: 9.01%
- viability, T/C [10]: 3.31%
- viability, T/C [11]: 0.07%
- viability, T/C [12]: 1.06%
- viability, T/C [13]: 57.2%
- viability, T/C [14]: 21.7%
- viability, T/C [15]: 9.64%
- viability, T/C [16]: 3.48%
- viability, T/C [17]: 0.07%
- viability, T/C [18]: 1.01%
- viability, T/C [19]: 50.5%
- viability, T/C [20]: 25.7%
- viability, T/C [21]: 7.36%
- viability, T/C [22]: 2.77%
- viability, T/C [23]: 0.08%
- viability, T/C [24]: 0.98%
- viability, T/C [25]: 59.6%
- viability, T/C [26]: 18.7%
- viability, T/C [27]: 8.4%
- viability, T/C [28]: 3.44%
- viability, T/C [29]: 0.13%
- viability, T/C [30]: 0.94%
- viability, T/C [31]: 33.5%
- viability, T/C [32]: 15.6%
- viability, T/C [33]: 5.82%
- viability, T/C [34]: 3.29%
- viability, T/C [35]: 0.17%
- viability, T/C [36]: 1.15%

Structure (SMILES): Nc1ccn(C2OC(CO)C(O)C2(F)F)c(=O)n1 (stereo not drawn) + CN(C)c1ccc(Nc2c3ccc(NC(=O)CCN4CCCC4)cc3nc3cc(NC(=O)CCN4CCCC4)ccc23)cc1
- pIC50 (second compound 0.0316 µM): > 7.50
- pIC50 (second compound 0.1 µM): > 7.50
- pIC50 (second compound 0.316 µM): > 7.50
- pIC50 (second compound 1 µM): > 7.50
- pIC50 (second compound 3.16 µM): > 7.50
- pIC50 (second compound 10 µM): > 7.50
- viability, T/C [1]: 11.5%
- viability, T/C [2]: 6.58%
- viability, T/C [3]: 6.05%
- viability, T/C [4]: 6.75%
- viability, T/C [5]: 6.08%
- viability, T/C [6]: 4.2%
- viability, T/C [7]: 12.7%
- viability, T/C [8]: 5.68%
- viability, T/C [9]: 6.81%
- viability, T/C [10]: 6.8%
- viability, T/C [11]: 5.93%
- viability, T/C [12]: 4.32%
- viability, T/C [13]: 13.1%
- viability, T/C [14]: 5.27%
- viability, T/C [15]: 6.2%
- viability, T/C [16]: 6.03%
- viability, T/C [17]: 5.63%
- viability, T/C [18]: 6.07%
- viability, T/C [19]: 11.6%
- viability, T/C [20]: 5.93%
- viability, T/C [21]: 7.47%
- viability, T/C [22]: 6.02%
- viability, T/C [23]: 6.39%
- viability, T/C [24]: 5.81%
- viability, T/C [25]: 10.2%
- viability, T/C [26]: 5.96%
- viability, T/C [27]: 6.33%
- viability, T/C [28]: 5.69%
- viability, T/C [29]: 5.78%
- viability, T/C [30]: 4.9%
- viability, T/C [31]: 6.83%
- viability, T/C [32]: 4.85%
- viability, T/C [33]: 4.16%
- viability, T/C [34]: 4.94%
- viability, T/C [35]: 4.47%
- viability, T/C [36]: 4.53%

Structure (SMILES): O=C(c1cc(Cc2n[nH]c(=O)c3ccccc23)ccc1F)N1CCN(C(=O)C2CC2)CC1 + CN(C)c1ccc(Nc2c3ccc(NC(=O)CCN4CCCC4)cc3nc3cc(NC(=O)CCN4CCCC4)ccc23)cc1
- pIC50 (second compound 0.0316 µM): 5.41
- pIC50 (second compound 0.1 µM): 5.34
- pIC50 (second compound 0.316 µM): 5.43
- pIC50 (second compound 1 µM): 5.31
- pIC50 (second compound 3.16 µM): 5.63
- pIC50 (second compound 10 µM): > 7.50
- viability, T/C [1]: 87.2%
- viability, T/C [2]: 81.6%
- viability, T/C [3]: 67.3%
- viability, T/C [4]: 67.9%
- viability, T/C [5]: 61.6%
- viability, T/C [6]: 22.1%
- viability, T/C [7]: 92.9%
- viability, T/C [8]: 87.2%
- viability, T/C [9]: 83.9%
- viability, T/C [10]: 74.8%
- viability, T/C [11]: 67.6%
- viability, T/C [12]: 20.3%
- viability, T/C [13]: 66.1%
- viability, T/C [14]: 87.3%
- viability, T/C [15]: 78.4%
- viability, T/C [16]: 73.3%
- viability, T/C [17]: 54.3%
- viability, T/C [18]: 24.4%
- viability, T/C [19]: 62.2%
- viability, T/C [20]: 90.4%
- viability, T/C [21]: 86.9%
- viability, T/C [22]: 71.7%
- viability, T/C [23]: 66.1%
- viability, T/C [24]: 24.6%
- viability, T/C [25]: 58.3%
- viability, T/C [26]: 87.8%
- viability, T/C [27]: 78.6%
- viability, T/C [28]: 51.9%
- viability, T/C [29]: 49.9%
- viability, T/C [30]: 20.7%
- viability, T/C [31]: 50.9%
- viability, T/C [32]: 44.6%
- viability, T/C [33]: 38.4%
- viability, T/C [34]: 37.6%
- viability, T/C [35]: 30.1%
- viability, T/C [36]: 11.8%
